Like-named read-outs stand apart in the source and are kept apart here.
Experiments:
[1] = rcm bond, 15-membered ring
[2] = target: T1, BACE1 enzyme (Homo sapiens, UniProt P56817); assay: Radioligand displacement assay with a radiolabeled BACE inhibitor on HEK293-9B.A1 cell homogenate; assay type: binding; conditions: displacement of 1 nM tritiated radioligand, HEK293-9B.A1 homogenate, pH 5.0, 1.5 hr at 25° C.; read-out: Activity Rating (Activity based on IC50 values)
T1 construct: The HEK293-9B.A1 cell line, which overexpresses the BACE1 enzyme, was derived from HEK293 cells; endogenous in cells; washed membrane pellet / cell homogenate
Source text: There are a number of methods by which inhibitors of the BACE enzyme can be identified experimentally. The enzyme can be obtained from membrane samples from natural tissues or cultured cells or can be expressed recombinantly in a host cell by well known methods of molecular biology. The whole enzyme or a portion thereof can be expressed, for example, in bacterial, insect or mammalian cells to obtain a catalytically active enzyme species. The enzymatic activity and/or ligand binding capability of the enzyme can be assessed within these membrane samples, or the enzyme can be purified to varying extents. As an illustrative example, the nucleic acid sequence encoding the pro and catalytic domains of human BACE can be appended on the 5′ end with an untranslated and signal sequence from the gene for acetylcholinesterase, and on the 3′ end with a sequence encoding a poly-histidine tag. This cDNA can then be expressed in Drosophila melanogaster S2 cells in which the signal and pro sequences of the transcribed/translated protein are removed by cellular proteases and the catalytic domain, appended by a C-terminal poly-histidine tag, is secreted out into the cellular medium. The enzyme can then be purified from the culture medium by nickel affinity chromatography by methods well known to those trained in the art [Mallender, W. et al., “Characterization of recombinant, soluble beta-secretase from an insect cell expression system.” Mol. Pharmacol. 2001, 59: 619-626]. Similar strategies for expressing and purifying various forms of BACE in bacterial, mammalian and other cell types would be known to one skilled in the art. A preferred method for determining the potency of a test compound in binding to the BACE enzyme is by moitoring the displacement of a suitable radioligand.
Radioligand displacement assays with a radiolabeled BACE inhibitor (WO 2004 013098, compound 3, where the methoxy group is substituted for C(3H)3) were carried out using standard methods (Keen, M. (1999) in Receptor Binding Techniques (Walker, J. M. ed) p. 106 Humana Press, Totowa, N.J.). The HEK293-9B.A1 cell line, which overexpresses the BACE1 enzyme, was derived from HEK293 cells (Simmons, N. L. (1990) A cultured human renal epithelioid cell line responsive to vasoactive intestinal peptide. Exp. Physiol. 75:309-19.) by RAGE™ (Harrington, J. J. et al. (2001) Creation of genome-wide protein expression libraries using random activation of gene expression. Nat. Biotechnol. 19:440-5.; U.S. Pat. Nos. 6,410,266 and 6,361,972). T225 flask cultures of HEK293-9B.A1 were grown to 80% confluency in DMEM supplemented with 2 mM L-glutamine, 10 μg/ml penicillin, 10 μg/ml streptomycin, 3 μg/ml puromycin, 100 nM methotrexate, and 10% fetal bovine serum (Invitrogen, Carlsbad, Calif.), harvested, and resuspended at 2×10^8 cells per 10 ml of lysis buffer consisting of 50 mM HEPES pH 7.0 containing a protease inhibitor cocktail of AEBSF 104 μM, aprotinin 80 nM, leupeptin 2 μM, bestatin 4 μM, pepstatin A 1.5 μM, and E-64 1.4 μM (0.1% of protease inhibitor cocktail P8340, Sigma-Aldrich, St. Louis, Mo.) at 4° C. The resuspended cells were homogenized using a Polytron (Brinkman, Westbury, N.Y.) at setting 6 for 10 sec., then centrifuged at 48,000×g for 10 min. The resulting pellet was washed by repeating the resuspension, homogenization and centrifugation steps. The final pellet was resuspended in buffer at 4° C. to yield a total protein concentration of 5 mg/ml, then aliquots were frozen in liquid nitrogen for further storage at −70° C. Immediately before carrying out a binding assay, an aliquot of cell homogenate was thawed and diluted to a concentration of 100 μg/ml in assay buffer consisting of 50 mM HEPES pH 5.0 and 0.1% CHAPSO. […]

T1 sequence (P56817 46-501): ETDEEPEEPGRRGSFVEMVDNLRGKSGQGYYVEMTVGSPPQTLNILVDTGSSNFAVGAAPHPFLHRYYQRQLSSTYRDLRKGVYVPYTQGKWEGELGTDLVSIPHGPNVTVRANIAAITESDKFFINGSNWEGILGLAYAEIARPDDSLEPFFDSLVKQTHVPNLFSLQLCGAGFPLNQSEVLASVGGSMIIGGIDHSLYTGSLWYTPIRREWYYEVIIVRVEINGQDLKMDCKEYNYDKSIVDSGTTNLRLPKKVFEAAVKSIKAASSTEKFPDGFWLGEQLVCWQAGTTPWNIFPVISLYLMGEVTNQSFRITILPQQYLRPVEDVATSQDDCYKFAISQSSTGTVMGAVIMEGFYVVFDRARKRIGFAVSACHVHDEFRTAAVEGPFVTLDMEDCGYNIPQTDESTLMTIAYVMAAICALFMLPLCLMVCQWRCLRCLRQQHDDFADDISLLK

Compound	IC50 [2] [nM]	further results
COc1ccc2c(c1)C1CC2OCC=CCC(N2CCCC2=O)C(=O)N[C@@H](Cc2ccccc2)[C@H](O)CN1 (stereo partly drawn) [Example 1, (4R,5S)-5-Benzyl-4-hydroxy-18-methoxy-8-(2-oxo-pyrrolidin-1-yl)-13-oxa-2,6-diaza-tricyclo[12.6.1.0^15,20]henicosa-10,15(20),16,18-tetraen-7-one]	> 1000	ring closure, yield after HPLC ([1]; from C=CCOC1CC(NC[C@@H](O)[C@H](Cc2ccccc2)NC(=O)C(CC=C)N2CCCC2=O)c2cc(OC)ccc21, Grubbs II (20 mol%)/TsOH.H2O, CH2Cl2, 8.75 mM, 25.0 °C, 18.0 h): 97%
CCCC[C@H]1CCN([C@H]2CC=CCO[C@@H]3C[C@H](NC[C@@H](O)[C@H](Cc4cc(F)cc(F)c4)NC2=O)c2cc(OC)ccc23)C1=O [Example 4, (1S,4R,5S,8S,14R)-8-((S)-3-Butyl-2-oxo-pyrrolidin-1-yl)-5-(3,5-difluoro-benzyl)-4-hydroxy-18-methoxy-13-oxa-2,6-diaza-tricyclo[12.6.1.0^15,20]henicosa-10,15(20),16,18-tetraen-7-one]	< 10	ring closure, yield after HPLC ([1]; from C=CCO[C@@H]1C[C@H](NC[C@@H](O)[C@H](Cc2cc(F)cc(F)c2)NC(=O)[C@H](CC=C)N2CC[C@H](CCCC)C2=O)c2cc(OC)ccc21, Hoveyda-Grubbs II (10 mol%), CH2Cl2, 25.0 °C, 72.0 h): 46%
COc1ccc2c(c1)[C@@H]1C[C@H]2OCC=CC[C@H](N2CCCC2=O)C(=O)N[C@@H](Cc2cc(F)cc(F)c2)[C@H](O)CN1 [Example 3, (1S,4R,5S,8S,14R)-5-(3,5-Difluoro-benzyl)-4-hydroxy-18-methoxy-8-(2-oxo-pyrrolidin-1-yl)-13-oxa-2,6-diaza-tricyclo[12.6.1.0^15,20]henicosa-10,15(20),16,18-tetraen-7-one]	10 to 1000	ring closure, yield after HPLC ([1]; from C=CCO[C@@H]1C[C@H](NC[C@@H](O)[C@H](Cc2cc(F)cc(F)c2)NC(=O)[C@H](CC=C)N2CCCC2=O)c2cc(OC)ccc21, Hoveyda-Grubbs II (20 mol%), CH2Cl2, 7.15 mM, 25.0 °C, 16.0 h): 70%
CCC(C)[C@@]1(NC(C)=O)CCN([C@H]2CC=CCO[C@@H]3C[C@H](NC[C@@H](O)[C@H](Cc4ccccc4)NC2=O)c2cc(OC)ccc23)C1=O (stereo partly drawn) [Example 6, N—[(S)-1-((1S,4R,5S,8S,14R)-5-Benzyl-4-hydroxy-18-methoxy-7-oxo-13-oxa-2,6-diaza-tricyclo[12.6.1.0^15,20]henicosa-10,15(20),16,18-tetraen-8-yl)-3-sec-butyl-2-oxo-pyrrolidin-3-yl]-acetamide]	< 10	ring closure, yield after HPLC ([1]; from C=CCO[C@@H]1C[C@H](NC[C@@H](O)[C@H](Cc2ccccc2)NC(=O)[C@H](CC=C)N2CC[C@](NC(C)=O)(C(C)CC)C2=O)c2cc(OC)ccc21, Hoveyda-Grubbs II (10 mol%), dichloroethane, 50.0 °C, 16.0 h): 50%
COc1ccc2c(c1)C1CC2OCCCCC(N2CCCC2=O)C(=O)N[C@@H](Cc2ccccc2)[C@H](O)CN1 (stereo partly drawn) [Example 2, (4R,5S)-5-Benzyl-4-hydroxy-18-methoxy-8-(2-oxo-pyrrolidin-1-yl)-13-oxa-2,6-diaza-tricyclo[12.6.1.0^15,20]henicosa-15(20),16,18-trien-7-one]	> 1000	
CCCC[C@H]1CCN([C@H]2CCCCO[C@@H]3C[C@H](NC[C@@H](O)[C@H](Cc4cc(F)cc(F)c4)NC2=O)c2cc(OC)ccc23)C1=O [Example 5, (1S,4R,5S,8S,14R)-8-((S)-3-Butyl-2-oxo-pyrrolidin-1-yl)-5-(3,5-difluoro-benzyl)-4-hydroxy-18-methoxy-13-oxa-2,6-diaza-tricyclo[12.6.1.0^15,20]henicosa-15(20),16,18-trien-7-one]	< 10	
COc1ccc2c(c1)[C@@H]1C[C@H]2OCC=CC[C@H](N2CC[C@H](CC(C)C)C2=O)C(=O)N[C@@H](Cc2ccccc2)[C@H](O)CN1 [Example 7, (1S,4R,5S,8S,14R)-5-Benzyl-4-hydroxy-8-((S)-3-isobutyl-2-oxo-pyrrolidin-1-yl)-18-methoxy-13-oxa-2,6-diaza-tricyclo[12.6.1.0^15,20]henicosa-10,15(20),16,18-tetraen-7-one]	< 10	ring closure, yield after HPLC ([1]; from C=CCO[C@@H]1C[C@H](NC[C@@H](O)[C@H](Cc2ccccc2)NC(=O)[C@H](CC=C)N2CC[C@H](CC(C)C)C2=O)c2cc(OC)ccc21, Hoveyda-Grubbs II (10 mol%), CH2Cl2, 8.9 mM, 25.0 °C, 16.0 h): 75%
